From BigSolDB 2.1

N#Cc1c(Cl)c(Cl)c(Cl)c(C#N)c1Cl
solubility (mole fraction)
Details	in 1,4-dioxane	in DMAc	in DMF	in MIBK	in THF	in acetone	in acetonitrile	in cyclohexanone	in ethyl acetate	in n-propyl acetate
288.15 K	0.0082	0.017	0.00992	0.00381	0.00909	0.00369	0.00134	0.0079	0.00311	0.0033
293.15 K	0.00951	0.0191	0.0111	0.00447	0.0102	0.00443	0.00161	0.00905	0.00374	0.00384
298.15 K	0.0109	0.0211	0.0128	0.00509	0.012	0.00512	0.00193	0.0106	0.00435	0.00444
303.15 K	0.0118	0.0239	0.0142	0.00603	0.0137	0.00566	0.00228	0.0123	0.00496	0.00523
308.15 K	0.0136	0.0264	0.0155	0.00668	0.0155	0.00682	0.00272	0.0135	0.00543	0.00566
313.15 K	0.015	0.03	0.0177	0.00802	0.0172	0.00779	0.00308	0.0154	0.00643	0.0067
318.15 K	0.0177	0.0334	0.0197	0.0102	0.0208	0.00932	0.00413	0.019	0.00744	0.0079
323.15 K	0.0215	0.0359	0.0233	0.0115	0.023	0.0113	0.00462	0.0222	0.00893	0.00904
